# Values joined by “and” are separate entries in the source; they are usually repeats but may differ in a detail not shown here. Equal entries are not always repeated.
# Legend:
# [1] = molecular target: LacB1 sensor, GFP^2-BgaR-RLuc8 fusion protein, SEQ ID NO: 15 (BgaR from Clostridium perfringins strain 13, SEQ ID NO: 1) (Clostridium perfringens, UniProt Q8XMB9); assay: biochemical; format: binding
# [2] = molecular target: LacF1 sensor, His6-CFP-BgaR-YFP fusion protein, SEQ ID NO: 23 (BgaR from Clostridium perfringins strain 13, SEQ ID NO: 1) (Clostridium perfringens, UniProt Q8XMB9); format: binding
smiles,measurement,setting,value
"OC[C@H]1O[C@@H](O[C@@H]2[C@@H](CO)OC(O)(CO)[C@H]2O)[C@H](O)[C@@H](O)[C@H]1O (stereo partly drawn) [lactulose, 4-O-β-D-galactosyl-D-fructose]",affinity of LacB1 for lactulose weaker than for lactose,[1],approximately 150 fold
same,change in BRET^2 ratio,[1],approximately 21%
same,difference in EC50 between lactose and lactulose,[1],200 fold
same,"limit of detection (LOD), lactulose",[1],0.1 mM
same,limit of detection for lactulose higher than for lactose,[1],100 fold
same,EC50,[1]; EC50 (lactulose),2400 ± 200 µM
OC[C@H]1OC(O)[C@H](O)[C@@H](O)[C@H]1O (some centres unmarked) [galactose],change in BRET^2 ratio,[1],3% and 13%
OC[C@H]1OC(O)[C@H](O)[C@@H](O)[C@@H]1O (some centres unmarked) [glucose],change in BRET^2 ratio,[1],9% and 6%
"OC[C@H]1O[C@@H](O[C@H]2[C@H](O)[C@@H](O)C(O)O[C@@H]2CO)[C@H](O)[C@@H](O)[C@H]1O (stereo partly drawn) [lactose, β-D-galactosyl-(1→4)-D-glucose]",RET ratio in the presence of lactose,[1],0.800±0.003
same,change in BRET^2 ratio,[1],approximately 35%
same,drop in RET ratio,[1],27%
same,EC50,[1]; EC50 (lactose),12 µM and 21 µM and 11 to 14 µM and 18 to 23 µM
same,RET ratio in the presence of lactose,[2],1.089±0.004
same,decrease in RET ratio,[2],10%

# Source: US11662349B2, “Carbohydrate sensors” (Commonwealth Scientific and Industrial Research Organisation, priority 2017, dated 2023)
